The test addresses T1, human TGR5 (Homo sapiens, UniProt Q8TDU6).
T1 construct: expressed in transfected cells
T1 sequence (Q8TDU6 1-330): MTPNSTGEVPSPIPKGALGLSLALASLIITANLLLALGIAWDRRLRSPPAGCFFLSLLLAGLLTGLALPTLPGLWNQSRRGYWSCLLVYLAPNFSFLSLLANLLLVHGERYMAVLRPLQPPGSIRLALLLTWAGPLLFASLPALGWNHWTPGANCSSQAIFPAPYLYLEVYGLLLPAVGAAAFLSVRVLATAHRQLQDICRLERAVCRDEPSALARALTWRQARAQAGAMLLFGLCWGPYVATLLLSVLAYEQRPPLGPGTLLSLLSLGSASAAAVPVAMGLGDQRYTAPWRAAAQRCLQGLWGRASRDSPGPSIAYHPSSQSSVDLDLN
As to the kind of experiment: cAMP production assay in HEK293 cells stably expressing TGR5 (LANCE TR-FRET). The class given is cell-based. To be noted: 30 minutes stimulation, read-out: cAMP Production in 293-TGR5 Cells EC50. On the procedure:
HEK293 cells stably expressing TGR5 (HEK293-TGR5) were established by stably transfecting HEK-293 cells with an expression vector (pcDNA 3.1, Invetrogen) inserted with human TGR5 cDNA using Fugene6 (Roche, Indianapolis, Ind.) according to conventional methods. Cells were grown in DMEM (invitrogen, Carlsbad, Calif.) supplemented with 10% FBS, 1% penicillin/streptomycin under geneticin selection. The presence of TGR5 transcripts in these cells was confirmed using branched DNA (bDNA, Genospectra, Inc., Fremont Calif.) following the manufacturer's protocol and using specific probes for human TGR5. cAMP production assay was performed in high throughput 1536 well format using LANCE cAMP detection kit (Perkin Elmer Inc., Boston, Mass.) according to the manufacturer's protocol. Briefly, HEK293-TGR5 cells were harvested using non-enzymatic cell dissociation buffer (Invitrogen, Carlsbad, Calif.) and suspended in DMEM supplemented with 0.1% FBS at a density of 800,000 cells/ml. Alexa antibody was added to the cell suspension, and 4 ul of the mixture was dispensed in white opaque tissue culture treated Greiner 1536 well plates (USA Scientific, Inc., Ocala, Fla.). After an overnight incubation at 37 C in an atmosphere of 10% CO2 and 95% humidity, 1 ul of 5 mM IBMX (Sigma, St. Louis, Mo.) solution in DMEM was dispensed for a final concentration of 1 mM. Cells were then stimulated with test compounds for 30 minutes, after which time 5 ul of detection reagent was added and incubated for 1-7 hrs at room temperature. TR-FRET signal was detected using the Viewlux (Perkin Elmer Inc., Boston Mass.). EC50 values were determined using Graph Pad Prizm analysis (GraphPad Software, Inc). The EC50 values for a wide range of bile acids generated from this assay were in agreement with the values published in the scientific literature. […] The symbol (+) denotes an EC50 value of ≦10 μM while the symbol (−) denotes an EC50 value of >10 μM (see Table 1).
For `O=c1c2ccccc2nc(-c2ccc(F)cc2)n1NCc1ccc2ccccc2c1` [Example 38, 2-(4-fluorophenyl)-3-(naphthalen-2-ylmethylamino)quinazolin-4(3H)-one], the EC50 was ≤ 10 µM. Turning to `O=c1c2ccccc2nc(-c2ccco2)n1NCc1ccc(Br)cc1` [Example 40, 3-(4-bromobenzylamino)-2-(furan-2-yl)quinazolin-4(3H)-one], the EC50 was ≤ 10 µM. The result for `O=c1c2ccccc2nc(-c2ccco2)n1N(Cc1ccc(Br)cc1)Cc1ccc(Br)cc1` [Example 41, 3-(bis(4-bromobenzyl)amino)-2-(furan-2-yl)quinazolin-4(3H)-one] reads ≤ 10 µM; that for `CN(C)c1ccc(-c2nc3ccccc3c(=O)n2NCc2ccc(Br)cc2)cc1` [Example 42, 3-(4-bromobenzylamino)-2-(4-(dimethylamino)phenyl)quinazolin-4(3H)-one], > 10 µM. In the case of `CN(C)c1ccc(-c2nc3ccccc3c(=O)n2NCc2ccc(Cl)cc2)cc1` [Example 43, 3-(4-chlorobenzylamino)-2-(4-(dimethylamino)phenyl)quinazolin-4(3H)-one] it was ≤ 10 µM; in that of `O=c1c2ccccc2nc(C2CCCCC2)n1NCc1ccc(Br)cc1` [Example 44, 3-(4-bromobenzylamino)-2-cyclohexylquinazolin-4(3H)-one], ≤ 10 µM. In the case of `O=c1c2ccccc2nc(C2CCCCC2)n1NCc1ccc(Cl)cc1` [Example 45, 3-(4-chlorobenzylamino)-2-cyclohexylquinazolin-4(3H)-one] it was ≤ 10 µM. On to `O=c1c2ccccc2nc(-c2cccc(Cl)c2)n1NCc1ccc(Br)cc1` [Example 46, 3-(4-bromobenzylamino)-2-(3-chlorophenyl)quinazolin-4(3H)-one], for which the EC50 was ≤ 10 µM.

As to `O=c1c2ccccc2nc(-c2ccc(Cl)cc2)n1NCc1ccc(Br)cc1` [Example 47, 3-(4-bromobenzylamino)-2-(4-chlorophenyl)quinazolin-4(3H)-one], the EC50 is ≤ 10 µM. The result for `O=c1c2ccccc2nc(-c2cccc(Cl)c2)n1NCc1ccc(Cl)cc1` [Example 48, 3-(4-chlorobenzylamino)-2-(3-chlorophenyl)quinazolin-4(3H)-one] reads ≤ 10 µM; that for `O=c1c2ccccc2nc(-c2cccc(Cl)c2)n1NCc1ccc(C(F)(F)F)cc1` [Example 49, 2-(3-chlorophenyl)-3-(4-(trifluoromethyl)benzylamino)quinazolin-4(3H)-one], ≤ 10 µM; that for `O=c1c2ccccc2nc(-c2cccc(Cl)c2)n1NCc1ccc(F)c(F)c1` [Example 50, 2-(3-chlorophenyl)-3-(3,4-difluorobenzylamino)quinazolin-4(3H)-one], ≤ 10 µM.

Consider `O=c1c2ccccc2nc(-c2ccc(Cl)cc2)n1NCc1ccc(Cl)cc1` [Example 51, 3-(4-chlorobenzylamino)-2-(4-chlorophenyl)quinazolin-4(3H)-one], for which the EC50 is ≤ 10 µM. The result for `O=c1c2ccccc2nc(-c2ccc(Cl)cc2)n1NCc1ccc(C(F)(F)F)cc1` [Example 52, 2-(4-chlorophenyl)-3-(4-(trifluoromethyl)benzylamino)quinazolin-4(3H)-one] reads ≤ 10 µM; that for `O=c1c2ccccc2nc(-c2ccc(Cl)cc2)n1NCc1ccc(F)c(F)c1` [Example 53, 2-(4-chlorophenyl)-3-(3,4-difluorobenzylamino)quinazolin-4(3H)-one], ≤ 10 µM; that for `Cc1cc(-c2nc3ccccc3c(=O)n2NCc2ccc(Br)cc2)ccc1F` [Example 54, 3-(4-bromobenzylamino)-2-(4-fluoro-3-methylphenyl)quinazolin-4(3H)-one], ≤ 10 µM. For the compound `COc1cccc(-c2nc3ccccc3c(=O)n2NCc2ccc(Br)cc2)c1` [Example 55, 3-(4-bromobenzylamino)-2-(3-methoxyphenyl)quinazolin-4(3H)-one], the EC50 was ≤ 10 µM. For the compound `COc1cccc(-c2nc3ccccc3c(=O)n2NCc2ccc(Cl)cc2)c1` [Example 56, 3-(4-chlorobenzylamino)-2-(3-methoxyphenyl)quinazolin-4(3H)-one], the EC50 was ≤ 10 µM. Consider `Cc1cc(-c2nc3ccccc3c(=O)n2NCc2ccc(Cl)cc2)ccc1F` [Example 57, 3-(4-chlorobenzylamino)-2-(4-fluoro-3-methylphenyl)quinazolin-4(3H)-one], for which the EC50 is ≤ 10 µM. Consider `COc1cc(OC)cc(-c2nc3ccccc3c(=O)n2NCc2ccc(Br)cc2)c1` [Example 58, 3-(4-bromobenzylamino)-2-(3,5-dimethoxyphenyl)quinazolin-4(3H)-one], for which the EC50 is ≤ 10 µM. The result for `COc1cc(OC)cc(-c2nc3ccccc3c(=O)n2NCc2ccc(Cl)cc2)c1` [Example 59, 3-(4-chlorobenzylamino)-2-(3,5-dimethoxyphenyl)quinazolin-4(3H)-one] reads ≤ 10 µM; that for `O=c1c2ccccc2nc(-c2cccc(OC(F)(F)F)c2)n1NCc1ccc(Br)cc1` [Example 60, 3-(4-bromobenzylamino)-2-(3-(trifluoromethoxy)phenyl)quinazolin-4(3H)-one], ≤ 10 µM; that for `O=c1c2ccccc2nc(-c2cccc(OC(F)(F)F)c2)n1NCc1ccc(Cl)cc1` [Example 61, 3-(4-chlorobenzylamino)-2-(3-(trifluoromethoxy)phenyl)quinazolin-4(3H)-one], ≤ 10 µM. As for `COc1ccc(-c2nc3ccccc3c(=O)n2NCc2ccc(Cl)cc2)cc1OC` [Example 62, 3-(4-chlorobenzylamino)-2-(3,4-dimethoxyphenyl)quinazolin-4(3H)-one], the EC50 was > 10 µM.

In the case of `O=c1c2ccccc2nc(-c2ccc3c(c2)OCO3)n1NCc1ccc(Br)cc1` [Example 63, 2-(benzo[d][1,3]dioxol-5-yl)-3-(4-bromobenzylamino)quinazolin-4(3H)-one], the EC50 was ≤ 10 µM. In the case of `O=c1c2ccccc2nc(-c2ccc3c(c2)OCO3)n1NCc1ccc(Cl)cc1` [Example 64, 2-(benzo[d][1,3]dioxol-5-yl)-3-(4-chlorobenzylamino)quinazolin-4(3H)-one] it was ≤ 10 µM; in that of `COc1cc(-c2nc3ccccc3c(=O)n2NCc2ccc(Br)cc2)ccc1C` [Example 65, 3-(4-bromobenzylamino)-2-(3-methoxy-4-methylphenyl)quinazolin-4(3H)-one], ≤ 10 µM; in that of `COc1cc(-c2nc3ccccc3c(=O)n2NCc2ccc(Cl)cc2)ccc1C` [Example 66, 3-(4-chlorobenzylamino)-2-(3-methoxy-4-methylphenyl)quinazolin-4(3H)-one], ≤ 10 µM. As to `COc1cc(-c2nc3ccccc3c(=O)n2NCc2ccc(F)cc2)ccc1C` [Example 67, 3-(4-fluorobenzylamino)-2-(3-methoxy-4-methylphenyl)quinazolin-4(3H)-one], the EC50 is ≤ 10 µM. Take `COc1cc(-c2nc3ccccc3c(=O)n2NCc2ccc(C(F)(F)F)cc2)ccc1C` [Example 68, 2-(3-methoxy-4-methylphenyl)-3-(4-(trifluoromethyl)benzylamino)quinazolin-4(3H)-one]: the EC50 is ≤ 10 µM. For `COc1cc(-c2nc3ccccc3c(=O)n2NCc2ccc(F)c(F)c2)ccc1C` [Example 69, 3-(3,4-difluorobenzylamino)-2-(3-methoxy-4-methylphenyl)quinazolin-4(3H)-one], the EC50 was ≤ 10 µM.

Source of the values: patent US20090035306A1 (KALYPSYS, INC., priority 2006, published 2009).
